Consider 1 compound from patent US20230219939A1, “N-(1-CYANO-PYRROLIDIN-3-YL)-5-(3-(TRIFLUOROMETHYL)PHENYL)OXAZOLE-2-CARBOXAMIDE DERIVATIVES AND THE CORRESPONDING OXADIAZOLE DERIVATIVES AS USP30 INHIBITORS FOR THE TREATMENT OF MITOCHONDRIAL DYSFUNCTION” (MISSION THERAPEUTICS LIMITED, priority 2020, published 2023).

The nature of data set [1]: WT-MDCK (wild-type) in vitro flux. Conditions: dog. It is filed as in vitro ADME. The source says: WT-MDCK (wild-type) in vitro flux.
In another data set the target is T1, USP30 (Homo sapiens, UniProt Q70CQ3).
T1 construct: purchased Boston Biochem E582
T1 sequence (Q70CQ3 57-517 limits assumed): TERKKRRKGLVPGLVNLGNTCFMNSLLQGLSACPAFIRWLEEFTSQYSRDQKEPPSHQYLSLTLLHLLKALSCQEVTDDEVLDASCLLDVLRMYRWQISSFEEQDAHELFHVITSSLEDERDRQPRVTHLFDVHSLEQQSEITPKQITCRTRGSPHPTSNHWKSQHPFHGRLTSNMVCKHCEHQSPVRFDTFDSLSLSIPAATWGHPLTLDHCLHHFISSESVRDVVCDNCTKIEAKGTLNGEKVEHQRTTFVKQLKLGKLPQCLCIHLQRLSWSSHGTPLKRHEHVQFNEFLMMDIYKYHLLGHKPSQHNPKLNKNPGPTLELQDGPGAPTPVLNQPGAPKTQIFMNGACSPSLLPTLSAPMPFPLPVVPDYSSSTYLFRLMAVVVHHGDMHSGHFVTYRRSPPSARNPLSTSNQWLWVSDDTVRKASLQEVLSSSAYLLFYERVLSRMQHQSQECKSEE
Briefly: USP30 biochemical IC50 assay (fluorescence polarisation). The method, then: Dilution plates were prepared at 21 times the final concentration (2100 μM for a final concentration of 100 μM) in 50% DMSO in a 96-well polypropylene V-bottom plate (Greiner #651201). A typical 8-point dilution series would be 100, 30, 10, 3, 1, 0.3, 0.1, 0.03 μM final. Reactions were performed in duplicate in black 384 well plates (small volume, Greiner 784076) in a final reaction volume of 21 μl. Either 1 μl of 50% DMSO or diluted compound was added to the plate. USP30 (Boston Biochem #E582) was diluted in reaction buffer (40 mM Tris, pH 7.5, 0.005% Tween 20, 0.5 mg/ml BSA, 5 mM beta-mercaptoethanol) to achieve a final assay concentration of 4 nM, and 10 μl of diluted USP30 was added to the compound. Enzyme and compound were incubated for 30 min at room temp. Reactions were initiated by the addition of 50 nM of TAMRA labelled peptide linked to ubiquitin via an iso-peptide bond as fluorescence polarisation substrate. Reactions were read immediately after addition of substrate and following a 2-hour incubation at room temperature. Readings were performed on a Pherastar Plus (BMG Labtech). λ Excitation 540 nm; λ Emission 590 nm.
(Polarisation of emitted light reports the rotation of a fluorescent probe.)

Another data set deals with TOM20 ubiquitylation. Nature of the data set: TOM20-ubiquitylation assay. It is filed as cell-based, human. Conditions: Antimycin A/oligomycin mitophagy trigger. The source says: Human cell lines can be challenged with mitochondrial depolarizing agents (ionophores (eg. CCCP, valinomycin), mitochondrial complex inhibitors (oligomycin, antimycin A)) to induce ubiquitylation of TOM20, which is then further promoted in the presence of USP30 inhibitors. TOM20 ubiquitylation is subsequently assessed through western blotting of the cell lysates, with TOM20 ubiquitylation adduct detection possible due to an 8 kDa molecule weight increase for each molecule of ubiquitin added, resulting in laddering of a TOM20 immunoreactive band. TOM20-ubiquitylation levels can be quantified using chemiluminescence densitometry of laddered immunoreactive bands.

A further data set deals with Cathepsin V (Homo sapiens, UniProt O60911). Briefly: Cathepsin V IC50. It is filed as biochemical.
Another data set addresses Cathepsin S (Homo sapiens, UniProt P25774). Briefly: Cathepsin S IC50. It is filed as biochemical.
The next data set can be described thus: Mouse plasma stability. In kind it is in vitro ADME.
Another data set is described as follows: Log D. It is filed as physicochemical. Conditions: pH 7.4; read-out: Log D measured at pH 7.4. The source says: log D: distribution co-efficient; lipophilicity measurement.
The nature of the next data set: Turbidimetric solubility. The settings on record: aqueous buffer, kinetic from dmso stock. In kind it is physicochemical. From the text:
Turbidimetric solubility: Test compound solution prepared in DMSO diluted into aqueous buffer.
Turbidimetry is used as the end-point by measuring absorbance at 620 nm.

Data set [2] is described as follows: Plasma binding, equilibrium dialysis. Conditions: mouse plasma; read-out: Binding Mouse Plasma fu, p. In kind it is in vitro ADME. From the text: Plasma fu,p: The free fraction of a compound in plasma preparation determined by in vitro equilibrium dialysis. It is understood that only unbound (free) compound is capable of engaging with the target.
Background: In equilibrium dialysis only unbound substance equilibrates across the membrane.

A short description of data set [3]: Brain microdialysis PK 30 mg/kg PO mouse. It is filed as in vivo. From the text: Kpuu is the ratio of unbound drug in brain to unbound drug in plasma and may be indicative of potential for treating peripheral and/or CNS indications.
For data set [4], the system named is USP2, USP6, USP10, USP16, USP21, USP22, USP25, USP28. Briefly: DUB selectivity panel IC50. It is filed as biochemical.
The nature of a further data set: FaSSIF solubility. In kind it is physicochemical. Conditions: pH 6.5, simulated intestinal fluid fasted state. The source says:
FaSSIF: simulated intestinal fluid in fasted state measured at pH 6.5.

Data set [5] deals with P-glycoprotein (human MDR1). Nature of the data set: MDR1-MDCK flux assay. In kind it is in vitro ADME, Canine. The settings on record: dog, read-out: MDR1-MDCK Effective efflux ratio. The source says: The treatment of CNS disorders, including Alzheimer's disease, Parkinson's disease, and other disorders described herein, requires drug molecules to target the brain, which requires adequate penetration of the blood brain barrier. […] The probability that a compound can cross the blood brain barrier may be measured by an in vitro flux assay utilizing a MDR1-MDCK cell monolayer (Madin-Darby Canine Kidney cells transfected with MDR-1 resulting in overexpression of the human efflux transporter P-glycoprotein). Additionally, exposure may also be measured directly in brain and plasma using in vivo animal models.
MDR1-MDCK (Madin-Darby Canine Kidney cell monolayer) (in vitro) flux assay.

The next data set concerns the target Cathepsin B (Homo sapiens, UniProt P07858). Nature of the data set: Cathepsin B IC50. It is filed as biochemical.

The structures appear in SMILES notation. Several values for one entry are separate records, joined by “and”; a condition that tells them apart may be missing. Equal entries are not always repeated. Where two headings read alike, the source gives them in different places. Bounds are passed on as bounds.

Chain of Cathepsin V (O60911 114-334, species assumed): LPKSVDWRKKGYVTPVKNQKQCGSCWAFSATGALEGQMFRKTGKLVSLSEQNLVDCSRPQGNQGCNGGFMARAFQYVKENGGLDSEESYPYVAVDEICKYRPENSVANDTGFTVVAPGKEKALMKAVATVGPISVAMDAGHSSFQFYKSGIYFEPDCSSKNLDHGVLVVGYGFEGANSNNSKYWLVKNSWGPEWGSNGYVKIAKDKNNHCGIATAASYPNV
Chain of Cathepsin S (P25774 115-331, species assumed): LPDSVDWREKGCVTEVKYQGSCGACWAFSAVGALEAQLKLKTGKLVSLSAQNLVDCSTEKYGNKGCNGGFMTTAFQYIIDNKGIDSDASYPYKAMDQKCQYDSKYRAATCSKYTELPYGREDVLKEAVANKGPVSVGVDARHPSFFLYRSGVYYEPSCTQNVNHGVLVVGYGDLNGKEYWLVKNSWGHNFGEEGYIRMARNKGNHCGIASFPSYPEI

In general, Papp A→B refers to how fast a substance crosses the layer from the apical side. By IC50 is commonly meant the concentration needed to halve the response being measured. The solubility is how much of the substance goes into solution per volume. Low values mean little dissolved substance, high ones much dissolved substance. Consider `COC[C@@H]1C[C@@H](NC(=O)c2ncc(-c3cccc(C(F)(F)F)c3)o2)CN1C#N` [Example 1, N-((3R,5S)-1-Cyano-5-(methoxymethyl)-pyrrolidin-3-yl)-5-(3-(trifluoromethyl)phenyl)oxazole-2-carboxamide], for which the efflux ratio in data set [1] was 0.8; in [5], 1.2. In [1] (A-B), this compound returned an apical-to-basolateral permeability (Papp A→B) of 11.8 ×10⁻⁶ cm/s. Besides, the IC50 at USP30 (USP30 biochemical IC50 assay, read-out: USP30 IC50) was 0.009 µM; at USP30 (read-out: DUB IC50 (μM) USP30), 0.009 µM and 0.004 to 0.033 µM; against Cathepsin V, 105 µM; against Cathepsin S, 138 µM; in data set [4] (range over the eight DUBs, read-out: DUB IC50 (μM) USP2, USP6, USP10, USP16, USP21, USP22, USP25, USP28), 16 to 97.9 µM; on Cathepsin B, 122 µM. For the same compound, the “TOM20-Ub 1.5-fold gain EC1.5x” value in the data set with TOM20 ubiquitylation was 0.020 µM. Also, in the data set “Mouse plasma stability”, the “plasma stability compared to Reference Example B (in words)” value was “significantly improved plasma stability”. For the same compound, the half-life in the data set “Mouse plasma stability” (mouse plasma, read-out: Stability Mouse plasma t1/2) was determined as 5.98 h. Also, the logD in “Log D” is 2.6. In addition, the solubility in “Turbidimetric solubility” is above 100 µM. Besides, the fraction unbound in data set [2] worked out at 0.12. In addition, the Kp uu in [3] (Brain microdialysis PK 30 mg/kg PO - mouse) stood at 1.2. Further, the “pre-frontal cortex Cmax, u/cell TOM20-Ub” value in data set [3] (Brain microdialysis PK 30 mg/kg PO mouse) was 23-fold. For the same compound, the “DUB selectivity preference for USP30 v 8 DUBs” value in [4] was above 1777. The “FaSSIF (μM) measured at pH 6.5” value in the data set “FaSSIF solubility” was 200 μM.
